According to US9440957B2, “Compounds and compositions for modulating EGFR Activity” (Novartis AG, priority 2012, dated 2016):
Where two headings read alike, the source gives them in different places.

Legend:
[1] = biological target: human EGFR L858R (NIH/3T3 cells) (Homo sapiens, UniProt P00533, L858R); test: EGFR target modulation in engineered NIH/3T3 cell lines (phospho-EGFR Y1068 AlphaLISA), EGFR L858R; assay type: cell-based; details: engineered NIH/3T3 cells, read-out: NIH3T3 IC50 (μM) EGFR (L858R)
Sequence of human EGFR L858R (NIH/3T3 cells) (P00533 25-1210 L858R): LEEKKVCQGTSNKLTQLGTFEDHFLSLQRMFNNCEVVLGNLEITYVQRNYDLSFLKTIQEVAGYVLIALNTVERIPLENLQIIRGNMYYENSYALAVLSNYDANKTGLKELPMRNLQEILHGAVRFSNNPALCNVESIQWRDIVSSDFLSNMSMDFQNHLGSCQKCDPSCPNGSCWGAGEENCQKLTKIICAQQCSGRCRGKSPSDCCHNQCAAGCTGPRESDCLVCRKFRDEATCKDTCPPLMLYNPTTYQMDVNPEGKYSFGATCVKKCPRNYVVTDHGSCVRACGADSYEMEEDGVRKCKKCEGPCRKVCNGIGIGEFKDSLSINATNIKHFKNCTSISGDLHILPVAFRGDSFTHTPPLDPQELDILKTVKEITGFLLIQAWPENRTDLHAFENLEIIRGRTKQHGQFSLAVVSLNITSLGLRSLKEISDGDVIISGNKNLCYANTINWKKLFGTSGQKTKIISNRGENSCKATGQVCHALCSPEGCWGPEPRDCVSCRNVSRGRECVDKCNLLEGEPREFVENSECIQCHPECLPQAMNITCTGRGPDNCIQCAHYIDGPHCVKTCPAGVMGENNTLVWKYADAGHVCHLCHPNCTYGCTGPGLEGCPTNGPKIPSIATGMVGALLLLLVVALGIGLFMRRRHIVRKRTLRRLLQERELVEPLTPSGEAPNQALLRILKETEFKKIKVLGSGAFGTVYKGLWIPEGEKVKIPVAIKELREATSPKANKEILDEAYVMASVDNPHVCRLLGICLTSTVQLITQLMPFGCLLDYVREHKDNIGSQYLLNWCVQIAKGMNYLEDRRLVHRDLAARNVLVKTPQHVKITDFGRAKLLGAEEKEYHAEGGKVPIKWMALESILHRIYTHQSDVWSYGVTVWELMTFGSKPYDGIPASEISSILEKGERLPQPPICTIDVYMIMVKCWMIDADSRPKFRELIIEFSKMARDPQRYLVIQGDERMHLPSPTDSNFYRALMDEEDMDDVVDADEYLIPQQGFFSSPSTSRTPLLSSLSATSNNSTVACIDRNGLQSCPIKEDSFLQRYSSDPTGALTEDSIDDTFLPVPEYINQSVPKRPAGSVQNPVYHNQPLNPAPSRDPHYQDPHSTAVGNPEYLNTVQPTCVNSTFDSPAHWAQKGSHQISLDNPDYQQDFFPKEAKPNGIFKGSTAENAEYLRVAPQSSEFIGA
Description: (§1) EGFR Target Modulation in Engineered NIH/3T3 Cell Lines Tissue Culture.
(§2) The cells were harvested with 0.05% Trypsin/EDTA (Hyclone #SH30236.01), re-suspended in 5% FBS/DMEM Pen/Strep without Puromycin and plated at 9,000 cells per well in 50 μl of media in a 384-well black plate with clear bottoms (Greiner #789068G). The cells were allowed to incubate overnight in a 37° C., 5% CO2 humidified tissue culture incubator. A 12-point test compound curve was prepared by serial diluting a 10 μM stock 1:3 in DMSO in a 384-well compound plate (Greiner #789201L). The serial diluted compounds were transferred to the plate containing cells by using a 50 nl Pin Head device (Perkin Elmer) and the cells were placed back in the incubator for 3 hours. Only the EGFR WT-expressing cells were induced with 50 ng/ml EGF (Preprotech #AF-100-15) for 5 minutes before lysis. […] The plates were shaken at 4° C. for 5 minutes with foil top at maximum speed. […] The plates were sealed with a foil top and frozen at −80° C. and thawed when needed.
(§3) The frozen aliquots were thawed and briefly centrifuged. All antibodies and beads were diluted in 1× AlphaLISA HiBlock Buffer (PE #AL004C). […] Goat anti-total EGFR (R&D Systems #AF231) was added and allowed to equilibrate for 1 hour at room temperature at 1 nM final concentration.
(§4) With these parameters, the IC50's for each compound in each cell line was calculated using non-linear curve fitting analysis.

[2] = biological target: human EGFR WT (NIH/3T3 cells, EGF-induced) (Homo sapiens, UniProt P00533); test: EGFR target modulation in engineered NIH/3T3 cell lines (phospho-EGFR Y1068 AlphaLISA), EGFR WT; assay type: cell-based; details: engineered NIH/3T3 cells, read-out: NIH3T3 IC50 (μM) EGFR (WT)
Sequence of human EGFR WT (NIH/3T3 cells, EGF-induced) (P00533 25-1210): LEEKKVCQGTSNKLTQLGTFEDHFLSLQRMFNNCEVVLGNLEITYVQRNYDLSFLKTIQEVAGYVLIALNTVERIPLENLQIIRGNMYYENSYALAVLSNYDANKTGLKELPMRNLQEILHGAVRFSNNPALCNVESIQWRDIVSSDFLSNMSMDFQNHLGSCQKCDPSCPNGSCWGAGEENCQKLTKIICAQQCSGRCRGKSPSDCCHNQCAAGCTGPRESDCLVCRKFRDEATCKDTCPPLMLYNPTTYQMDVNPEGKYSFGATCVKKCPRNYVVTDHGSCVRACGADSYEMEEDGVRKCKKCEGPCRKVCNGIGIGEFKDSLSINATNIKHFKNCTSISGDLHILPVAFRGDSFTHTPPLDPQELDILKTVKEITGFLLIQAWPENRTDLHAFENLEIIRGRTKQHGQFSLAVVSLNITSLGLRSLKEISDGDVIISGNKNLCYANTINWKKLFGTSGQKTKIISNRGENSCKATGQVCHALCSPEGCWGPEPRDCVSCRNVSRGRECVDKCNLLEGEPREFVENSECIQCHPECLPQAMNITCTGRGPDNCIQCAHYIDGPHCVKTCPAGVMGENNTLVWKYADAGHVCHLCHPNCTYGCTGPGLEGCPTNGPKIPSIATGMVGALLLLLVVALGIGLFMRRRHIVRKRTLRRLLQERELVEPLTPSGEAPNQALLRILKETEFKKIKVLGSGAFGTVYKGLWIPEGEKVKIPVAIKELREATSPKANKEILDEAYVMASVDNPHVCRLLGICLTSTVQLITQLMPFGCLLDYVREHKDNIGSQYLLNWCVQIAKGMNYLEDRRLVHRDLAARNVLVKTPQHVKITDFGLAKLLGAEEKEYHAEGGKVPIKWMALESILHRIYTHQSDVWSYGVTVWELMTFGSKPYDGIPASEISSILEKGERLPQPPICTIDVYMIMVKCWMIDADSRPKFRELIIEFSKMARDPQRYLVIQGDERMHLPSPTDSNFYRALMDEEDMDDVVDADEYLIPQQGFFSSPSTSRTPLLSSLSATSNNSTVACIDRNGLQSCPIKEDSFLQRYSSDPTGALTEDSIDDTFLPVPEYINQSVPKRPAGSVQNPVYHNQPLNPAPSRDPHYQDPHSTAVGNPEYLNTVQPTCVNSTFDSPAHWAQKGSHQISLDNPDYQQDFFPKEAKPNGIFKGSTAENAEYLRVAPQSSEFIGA
Description: as §1, §2, §3, §4

[3] = biological target: human EGFR L858R/T790M (NIH/3T3 cells) (Homo sapiens, UniProt P00533, L858R/T790M); test: EGFR target modulation in engineered NIH/3T3 cell lines (phospho-EGFR Y1068 AlphaLISA), EGFR L858R/T790M; assay type: cell-based; details: engineered NIH/3T3 cells, read-out: NIH3T3 IC50 (μM) EGFR (L858R/T790M)
Sequence of human EGFR L858R/T790M (NIH/3T3 cells) (P00533 25-1210 T790M/L858R): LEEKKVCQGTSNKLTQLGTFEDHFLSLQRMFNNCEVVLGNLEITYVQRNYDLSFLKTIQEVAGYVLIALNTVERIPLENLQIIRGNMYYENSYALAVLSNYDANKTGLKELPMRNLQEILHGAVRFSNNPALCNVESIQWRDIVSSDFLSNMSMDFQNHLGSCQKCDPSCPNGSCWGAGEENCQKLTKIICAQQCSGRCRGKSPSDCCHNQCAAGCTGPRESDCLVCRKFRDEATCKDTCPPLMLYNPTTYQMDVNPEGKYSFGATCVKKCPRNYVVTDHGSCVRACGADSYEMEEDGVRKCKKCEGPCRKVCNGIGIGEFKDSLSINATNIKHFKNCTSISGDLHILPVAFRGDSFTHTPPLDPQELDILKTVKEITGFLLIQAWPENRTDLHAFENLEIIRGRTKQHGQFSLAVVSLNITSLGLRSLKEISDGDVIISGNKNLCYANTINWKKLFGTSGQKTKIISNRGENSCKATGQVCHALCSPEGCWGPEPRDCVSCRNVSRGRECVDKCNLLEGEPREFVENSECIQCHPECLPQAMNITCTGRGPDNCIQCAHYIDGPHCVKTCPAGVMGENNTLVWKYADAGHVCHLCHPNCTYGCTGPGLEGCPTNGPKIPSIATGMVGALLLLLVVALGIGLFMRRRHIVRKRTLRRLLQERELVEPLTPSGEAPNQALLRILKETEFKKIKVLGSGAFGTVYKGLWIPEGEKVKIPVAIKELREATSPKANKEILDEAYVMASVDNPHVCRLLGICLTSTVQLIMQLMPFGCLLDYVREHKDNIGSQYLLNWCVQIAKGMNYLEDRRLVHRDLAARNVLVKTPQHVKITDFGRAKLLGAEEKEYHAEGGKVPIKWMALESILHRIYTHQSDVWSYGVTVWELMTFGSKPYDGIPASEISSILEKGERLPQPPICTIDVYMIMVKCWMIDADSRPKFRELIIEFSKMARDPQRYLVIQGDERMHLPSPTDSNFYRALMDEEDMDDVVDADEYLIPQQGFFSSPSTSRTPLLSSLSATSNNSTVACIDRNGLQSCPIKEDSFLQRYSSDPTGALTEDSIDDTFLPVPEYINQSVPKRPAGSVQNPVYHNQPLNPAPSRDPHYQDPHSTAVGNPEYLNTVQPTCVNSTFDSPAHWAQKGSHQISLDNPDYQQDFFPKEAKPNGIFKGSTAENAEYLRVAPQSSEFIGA
Description: as §1, §2, §3, §4

[4] = biological target: T1, EGFR(L858R/T790M) (Homo sapiens, UniProt P00533, L858R/T790M); test: EGFR biochemical assay (HTRF), IC50 determinations
T1 construct: purchased from Carna (GST-a.a. 669-1210)
T1 sequence (P00533 669-1210 T790M/L858R): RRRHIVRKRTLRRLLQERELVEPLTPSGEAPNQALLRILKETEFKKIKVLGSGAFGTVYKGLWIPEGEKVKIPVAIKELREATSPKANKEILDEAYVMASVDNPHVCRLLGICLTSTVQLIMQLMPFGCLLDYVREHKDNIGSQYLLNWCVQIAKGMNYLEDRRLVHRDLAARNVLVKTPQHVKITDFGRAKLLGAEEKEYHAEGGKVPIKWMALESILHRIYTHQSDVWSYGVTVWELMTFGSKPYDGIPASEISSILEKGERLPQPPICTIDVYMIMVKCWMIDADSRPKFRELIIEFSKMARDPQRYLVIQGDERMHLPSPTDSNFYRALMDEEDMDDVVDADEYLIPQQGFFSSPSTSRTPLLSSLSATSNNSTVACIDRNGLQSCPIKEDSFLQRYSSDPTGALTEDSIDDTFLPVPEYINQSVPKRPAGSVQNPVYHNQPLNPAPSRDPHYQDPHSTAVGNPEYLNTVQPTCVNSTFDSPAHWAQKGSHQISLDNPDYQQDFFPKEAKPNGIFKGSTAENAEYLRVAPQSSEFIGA
Description: All EGFR biochemical assays were carried out by HTRF method. […] The substrate peptide Biotin-TK-peptide was purchased from Cis-Bio. […] All reactions were carried out at room temperature in white ProxiPlate™ 384-well Plus plates (PerkinElmer) and were quenched with 5 μL of 0.2 M EDTA at 60 min. Five L of the detection reagents (2.5 ng PT66K and 0.05 μg SAXL per well) were added, the plates were incubated at room temperature for 1 h and then read in EnVision reader. […] For no-preincubation condition, the compounds were added to the assay solution containing ATP and peptide, and the reaction was initiated by addition of enzyme. For pre-incubation conditions, the compounds were added to the assay solution containing enzyme and peptide, and pre-incubated at room temperature for desired period of time, then the reaction was initiated by addition of ATP.

[5] = EGFR (L858R/T790M) with 90 min pre-incubation, read-out: IC50 (μM) Column B
[6] = EGFR (L858R/T790M) with no pre-incubation, read-out: IC50 (μM) Column A

| Structure (SMILES) | IC50 [1] [µM] | IC50 [2] [µM] | IC50 [3] [µM] | IC50 [4, 5] [µM] | IC50 [4, 6] [µM] |
| --- | --- | --- | --- | --- | --- |
| CC#CC(=O)N1CCCCC(n2c(NC(=O)c3cccc(C(F)(F)F)c3)nc3cccc(C)c32)C1 (stereo not shown) [Example 17-19] | 0.33 | > 10 | 0.044 | 0.007 | 0.33 |
| C/C=C/C(=O)N1CCCCC(n2c(NC(=O)c3cccc(C(F)(F)F)c3)nc3cccc(C)c32)C1 (stereo not shown) [Example 17-20] | 0.75 | > 10 | 0.073 | 0.032 | 0.43 |
| Cc1cccc2nc(NC(=O)c3cccc(F)c3)n(C3CCCCN(C(=O)/C=C/CN(C)C)C3)c12 (stereo not shown) [Example 17-21] | 0.007 | 0.32 | 0.004 | < 0.001 | 0.005 |
| Cc1cccc2nc(NC(=O)c3cc(F)cc(F)c3)n(C3CCCCN(C(=O)/C=C/CN(C)C)C3)c12 (stereo not shown) [Example 17-22] | 0.004 | 0.271 | 0.002 | < 0.001 | 0.003 |
| Cc1cccc2nc(NC(=O)c3cccnc3)n(C3CCCCN(C(=O)/C=C/CN(C)C)C3)c12 (stereo not shown) [Example 17-23] | 0.004 | 0.149 | 0.003 | < 0.001 | 0.003 |
| Cc1cccc2nc(NC(=O)c3cccc(Cl)c3F)n(C3CCCCN(C(=O)/C=C/CN(C)C)C3)c12 (stereo not shown) [Example 17-31] | 0.019 | 0.75 | 0.005 | < 0.001 | 0.016 |
| Cc1cccc2nc(NC(=O)c3ccc(F)c(Cl)c3F)n(C3CCCCN(C(=O)/C=C/CN(C)C)C3)c12 (stereo not shown) [Example 17-32] | 0.007 | 0.206 | 0.004 | < 0.001 | 0.014 |
| Cc1cccc2nc(NC(=O)c3ccccn3)n(C3CCCCN(C(=O)/C=C/CN(C)C)C3)c12 (stereo not shown) [Example 17-34] | 0.53 | > 10 | 0.221 | 0.038 | 1.05 |
| Cc1cccc2nc(NC(=O)c3ncccn3)n(C3CCCCN(C(=O)/C=C/CN(C)C)C3)c12 (stereo not shown) [Example 17-36] | 3.5 | > 10 | 2.96 | 0.35 | 10.6 |
| Cc1cccc2nc(NC(=O)c3cnccn3)n(C3CCCCN(C(=O)/C=C/CN(C)C)C3)c12 (stereo not shown) [Example 17-38] | 0.093 | 1.92 | 0.049 | 0.006 | 0.117 |
| Cc1cccc2nc(NC(=O)c3cccnn3)n(C3CCCCN(C(=O)/C=C/CN(C)C)C3)c12 (stereo not shown) [Example 17-39] | 0.221 | 5.2 | 0.072 | 0.007 | 0.12 |
| Cc1cccc(C(=O)Nc2nc3cccc(C)c3n2C2CCCCN(C(=O)/C=C/CN(C)C)C2)c1 (stereo not shown) [Example 17-41] | 0.012 | 0.44 | 0.004 | < 0.001 | 0.008 |
| Cc1cccc2nc(NC(=O)c3cccc(Cl)c3)n(C3CCCCN(C(=O)/C=C/CN(C)C)C3)c12 (stereo not shown) [Example 17-43] | 0.014 | 0.48 | 0.004 | < 0.001 | 0.006 |
| COc1cccc(C(=O)Nc2nc3cccc(C)c3n2C2CCCCN(C(=O)/C=C/CN(C)C)C2)c1 (stereo not shown) [Example 17-44] | 0.015 | 0.39 | 0.003 | < 0.001 | 0.007 |
| Cc1cccc2nc(NC(=O)c3ccn(C)c(=O)c3)n(C3CCCCN(C(=O)/C=C/CN(C)C)C3)c12 (stereo not shown) [Example 17-49] | 0.006 | 0.33 | 0.027 | 0.001 | 0.029 |
| Cc1cccc2nc(NC(=O)c3ccnc(N(C)C)c3)n(C3CCCCN(C(=O)/C=C/CN(C)C)C3)c12 (stereo not shown) [Example 17-50] | 0.005 | 0.086 | 0.009 | < 0.001 | 0.009 |

| Structure (SMILES) | IC50 [1] [µM] | IC50 [2] [µM] | IC50 [3] [µM] | IC50 [4, 5] [µM] | IC50 [4, 6] [µM] |
| --- | --- | --- | --- | --- | --- |
| Cc1cccc2nc(NC(=O)c3ccc4nccn4c3)n(C3CCCCN(C(=O)/C=C/CN(C)C)C3)c12 (stereo not shown) [Example 17-55] | 0.002 | 0.022 | 0.003 | < 0.001 | 0.007 |
| Cc1cccc2nc(NC(=O)c3ccco3)n(C3CCCCN(C(=O)/C=C/CN(C)C)C3)c12 (stereo not shown) [Example 17-56] | 0.017 | 0.263 | 0.008 | 0.002 | 0.02 |
| Cc1cccc2nc(NC(=O)c3ccnc(N4CCCCC4)c3)n(C3CCCCN(C(=O)/C=C/CN(C)C)C3)c12 (stereo not shown) [Example 17-57] | < 0.001 | 0.02 | 0.002 | < 0.001 | < 0.001 |
| Cc1cc(C(=O)Nc2nc3cccc(C)c3n2C2CCCCN(C(=O)/C=C/CN(C)C)C2)oc1C (stereo not shown) [Example 17-59] | 0.02 | 0.37 | 0.019 | 0.006 | 0.105 |
| Cc1cccc2nc(NC(=O)c3ccnc(C(C)(C)C)c3)n(C3CCCCN(C(=O)/C=C/CN(C)C)C3)c12 (stereo not shown) [Example 17-61] | < 0.001 | 0.011 | 0.003 | < 0.001 | 0.004 |
| Cc1ncc(C(=O)Nc2nc3cccc(C)c3n2C2CCCCN(C(=O)/C=C/CN(C)C)C2)s1 (stereo not shown) [Example 17-64] | 0.002 | 0.021 | 0.005 | 0.001 | 0.02 |
| CCOc1cc(C(=O)Nc2nc3cccc(C)c3n2C2CCCCN(C(=O)/C=C/CN(C)C)C2)ccn1 (stereo not shown) [Example 17-65] | 0.002 | 0.012 | 0.002 | < 0.001 | 0.004 |
| Cc1cccc2nc(NC(=O)c3ccc4ccccc4c3)n(C3CCCCN(C(=O)/C=C/CN(C)C)C3)c12 (stereo not shown) [Example 17-66] | 0.005 | 0.129 | 0.009 | < 0.001 | 0.005 |
| Cc1cccc2nc(NC(=O)c3ccnc(Cl)c3)n([C@@H]3CCCCN(C(=O)/C=C/CN(C)C)C3)c12 [Example 17-73] | 0.001 | 0.016 | < 0.001 | < 0.001 | < 0.001 |
| CC1=C(C(=O)N2CCCC[C@@H](n3c(NC(=O)c4ccnnc4)nc4cccc(C)c43)C2)S(=O)(=O)CCO1 [Example 17-88] | 0.158 | 8.4 | 0.209 | 0.04 | 0.39 |
| Cc1cccc2nc(NC(=O)c3ccnnc3)n([C@@H]3CCCCN(C(=O)C4=COCCO4)C3)c12 [Example 17-89] | 0.46 | 0.7 | 7.5 | 2.32 | 1.01 |
| C=C(CN1CCCCC1)C(=O)N1CCCC[C@@H](n2c(NC(=O)c3ccnnc3)nc3cccc(C)c32)C1 [Example 17-90] | 0.054 | 0.76 | 0.055 | 0.013 | 0.199 |
| C=C(CN1CCCC1)C(=O)N1CCCC[C@@H](n2c(NC(=O)c3ccnnc3)nc3cccc(C)c32)C1 [Example 17-91] | 0.033 | 1.01 | 0.042 | 0.007 | 0.198 |
| C=C(CN(CC)CC)C(=O)N1CCCC[C@@H](n2c(NC(=O)c3ccnnc3)nc3cccc(C)c32)C1 [Example 17-92] | 0.043 | 1.83 | 0.057 | 0.012 | 0.213 |
| C=C(CN1CCOCC1)C(=O)N1CCCC[C@@H](n2c(NC(=O)c3ccnnc3)nc3cccc(C)c32)C1 [Example 17-93] | 0.281 | 4.2 | 0.35 | 0.059 | 0.39 |
| C=CC(=O)N1CCCC[C@@H](n2c(NC(=O)c3cccc(C(F)(F)F)c3)nc3cccc(C(=O)OC)c32)C1 [Example 17-96] | 0.016 | 1.98 | 0.004 | 0.011 | 0.106 |
